What was measured:
[1] = tested on: STZ-induced diabetic C57BL/6 mice; assay: Blood glucose and glucose tolerance test in STZ-induced diabetic mice; assay type: in vivo, mouse; conditions: 150 mg/kg i.p. daily, at 2 weeks after treatment
Excerpt: (§1) Male C57BL/6 and C57BL/6 ob/ob mice were purchased from The Jackson Laboratory (Bar Harbor, Me.), and Sprague-Dawley (SD) rats were purchased from Charles River Laboratories (Wilmington, Mass.). The animals were maintained and bred under specific pathogen-free conditions and provided with sterile food and water ad libitum at the Animal Resources Centre, Faculty of Medicine, University of Calgary. The use and care of the animals used in this study were approved by the Animal Care Committee, Faculty of Medicine, University of Calgary.
DHH105 was dissolved in DMSO and emulsified in olive oil (1:50 v/v). DHH105, at a dose of 150 mg/kg body weight (b.w.) in 100 μl, was injected intraperitoneally (i.p.) every day into diabetic ob/ob mice (blood glucose level>230 mg/dl) and STZ-treated diabetic C57BL/6 mice (blood glucose level>300 mg/dl). Control mice received the same amount of olive oil without DHH105. Blood glucose levels were measured with a glucometer (One Touch Ultra, Lifescan, Milpitas, Calif.) every morning between 9:00–10:00 a.m. just before injection of DHH105.
(§2) To determine whether treatment with DHH105 can decrease the blood glucose level in STZ-induced diabetic C57BL/6 mice (blood glucose levels>300 mg/dl), mice were treated with DHH105 (150 mg/kd) daily for 2 weeks. […] Blood glucose levels were measured at 0, 15, 30, 60, and 120 min after glucose injection.

diabetic ob/ob mice = assay: Blood glucose and glucose tolerance test in diabetic ob/ob mice; assay type: in vivo, mouse
Excerpt: as §1
DHH105 was dissolved in DMSO and emulsified in olive oil (1:50 v/v). […] Blood glucose levels were measured with a glucometer (One Touch Ultra, Lifescan, Milpitas, Calif.) every morning between 9:00–10:00 a.m. just before injection of DHH105.
as §2
The blood glucose lowering effect was further determined in ob/ob mice, a model of type 2 diabetes. […]

[2] = tested on: isolated rat epididymal adipocytes; assay: Glucose transport assay (2-DOG uptake); assay type: cell-based
IR-β = biological target: T1, IR-β (Mus musculus, UniProt P15208); assay: Phosphorylation of IR-β in adipose tissue of treated diabetic mice; assay type: in vivo; conditions: 2 weeks of DHH105 treatment
T1 construct: from tissue; host or cells: fat (adipose) tissue of STZ-induced diabetic C57BL/6 mice and ob/ob mice
T1 sequence (P15208 753-1372 limits assumed): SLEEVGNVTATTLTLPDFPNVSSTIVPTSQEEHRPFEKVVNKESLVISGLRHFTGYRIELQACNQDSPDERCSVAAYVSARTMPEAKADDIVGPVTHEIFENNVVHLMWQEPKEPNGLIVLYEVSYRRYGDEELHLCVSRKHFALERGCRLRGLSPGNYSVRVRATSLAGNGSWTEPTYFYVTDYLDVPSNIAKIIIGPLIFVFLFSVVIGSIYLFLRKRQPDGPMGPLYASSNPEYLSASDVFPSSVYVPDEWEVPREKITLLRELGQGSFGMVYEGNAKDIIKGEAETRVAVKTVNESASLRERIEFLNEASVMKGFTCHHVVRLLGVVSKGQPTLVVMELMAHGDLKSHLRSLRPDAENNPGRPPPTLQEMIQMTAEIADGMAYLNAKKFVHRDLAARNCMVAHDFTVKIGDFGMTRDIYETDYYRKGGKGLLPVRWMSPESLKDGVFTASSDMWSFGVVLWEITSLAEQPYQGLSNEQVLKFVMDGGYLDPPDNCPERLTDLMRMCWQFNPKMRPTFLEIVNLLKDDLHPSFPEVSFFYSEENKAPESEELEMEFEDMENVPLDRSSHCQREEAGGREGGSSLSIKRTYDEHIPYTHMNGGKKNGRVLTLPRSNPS
T1 sequence (P15208 28-748 limits assumed): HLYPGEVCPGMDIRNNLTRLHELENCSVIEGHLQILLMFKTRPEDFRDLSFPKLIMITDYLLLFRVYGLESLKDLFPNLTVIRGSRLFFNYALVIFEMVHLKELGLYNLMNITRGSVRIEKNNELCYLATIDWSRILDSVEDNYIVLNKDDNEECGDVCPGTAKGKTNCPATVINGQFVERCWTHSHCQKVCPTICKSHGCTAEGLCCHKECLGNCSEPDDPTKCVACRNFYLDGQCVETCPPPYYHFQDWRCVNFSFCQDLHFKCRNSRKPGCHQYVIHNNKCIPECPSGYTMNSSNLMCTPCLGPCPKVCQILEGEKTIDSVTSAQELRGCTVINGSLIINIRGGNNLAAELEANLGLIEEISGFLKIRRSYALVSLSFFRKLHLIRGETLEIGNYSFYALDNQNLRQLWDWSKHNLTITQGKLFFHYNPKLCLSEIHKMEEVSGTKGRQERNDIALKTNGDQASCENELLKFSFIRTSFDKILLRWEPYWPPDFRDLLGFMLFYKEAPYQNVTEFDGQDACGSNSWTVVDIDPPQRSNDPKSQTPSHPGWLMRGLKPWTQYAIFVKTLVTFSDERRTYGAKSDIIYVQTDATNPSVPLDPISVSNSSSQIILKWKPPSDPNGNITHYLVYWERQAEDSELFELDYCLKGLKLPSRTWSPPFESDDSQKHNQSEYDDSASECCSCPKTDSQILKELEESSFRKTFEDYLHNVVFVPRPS
Procedure: Adipocytes treated with DHH105 for 2 h or insulin for 10 min were homogenized in 5 ml lysis buffer (20 mM Tris, pH 7.4, 1% SDS, 10% glycerol, 150 mM NaCl, 2 mM EDTA, 20 mM NaF, 1 mM NaVO4, 2 mM sodium pyrophosphate, protease inhibitor cocktail, and phosphatase inhibitor cocktail) with a teflon pestle (15 strokes). Homogenized adipocytes were sonicated for 3 min and solubilized for 30 min. The homogenate was centrifuged at 3,000 g for 10 min at 4° C. The protein concentration of the lysate was determined by the Bradford method. After dilution (1 μg/μl protein concentration), the lysates were incubated with anti-insulin receptor-β (IR-β) antibody (Upstate Biotech, Charlottesville, Va.) or anti-IRS-1 antibody (Upstate Biotech) overnight at 4° C. Protein A Sepharose beads (100 μl, Amersham Pharmacia Biotech) were added and the mixture was gently rocked for 2 h at 4° C. […] The membranes were washed and the immunoreactive proteins were detected with an enhanced chemoluminescence western blot detection kit (Amersham Pharmacia Biotech). To examine whether in vivo treatment of STZ-induced diabetic C57BL/6 mice or ob/ob mice with DHH105 also increases phosphorylation of IR-β, and IRS-1, fat tissue was removed from the mice after 2 weeks of DHH105 treatment and phosphorylation of IR-β and IRS-1 was measured by immunoprecipitation and western blot.

Akt/PKB = Akt/PKB phosphorylation in adipocytes, western blot; assay type: cell-based, rat; conditions: 500 μM, 4 h
Procedure: Proteins were separated by 10% SDS-PAGE and transferred to a polyvinyl difluoride membrane (Amersham Pharmacia Biotech). After transfer, the membranes were blocked with 5% skim milk in Tris-buffered saline with Tween 20 (TBST; 0.05% Tween 20, 200 mM Tris-HCl, 500 mM NaCl, pH 7.5) for 1 h at room temperature. The membranes were incubated with anti-IR-β, anti-IRS-1, anti-phosphotyrosine, or anti-p85 PI3-kinase (Upstate Biotech); anti-Akt/PKB or anti-phospho-Akt/PKB (Cell Signalling Technology, Beverly, Mass.); anti-GLUT4 (Santa Cruz Biotechnology Inc., Santa Cruz, Calif.); or anti-β actin (Sigma) antibody in 5% bovine serum albumin in TBST for 1 h at room temperature or overnight at 4° C. After washing, the membranes were incubated with secondary antibodies labeled with horseradish peroxidase (HRP) in 5% skim milk in TBST for 1 h. The membranes were washed and the immunoreactive proteins were detected with an enhanced chemoluminescence western blot detection kit (Amersham Pharmacia Biotech).

[3] = 500 μM, 4 h, 2-DOG 0.125 to 10.0 mM, Lineweaver-Burk

`O=C(CCc1ccc(O)c(O)c1)OCc1cccc2ccccc12` [DHH105, 3,4-dihydroxyhydrocinnamic acid naphthalene methyl ester] was tested, and the blood glucose levels [1] was “significantly decreased”, the “time after first injection at which blood glucose levels began to decrease” value (diabetic ob/ob mice; 150 mg/kg i.p. daily) was 4 days and the “blood glucose levels vs vehicle-treated control mice” value (diabetic ob/ob mice; 150 mg/kg i.p. daily for 2 weeks) was “significantly lower”. The “effect on insulin-stimulated glucose transport” value ([2]; 500 μM DHH105 3.5 h, then insulin 30 min) was “did not influence”, the “Km value, DHH105-treated vs control adipocytes” value ([2]; 500 μM, 4 h) was “no difference” and the Km [2, 3] was 1780 ± 380 µM. The “Vmax of glucose transport” value [2, 3] was 17.14±0.25 mmol/3 min, the “Vmax of glucose transport relative to untreated control adipocytes” value ([2]; 500 μM, 4 h, Lineweaver-Burk) was 3 fold and the “incubation time from which 2-DOG uptake was increased” value ([2]; rat adipocytes, 500 μM) was 1 h. For the same molecule, the “increase of glucose transport vs untreated control at optimum concentration” value ([2]; rat adipocytes, 4 h, DHH105 500 μM, glyburide 25 μM, metformin 250 μM, troglitazone 100 μM) was 4 fold, the “concentration at which 2-DOG uptake peaked” value ([2]; rat adipocytes, 4 h treatment) was 500 µM and the “effect on glucose transport compared with other anti-diabetic drugs” value ([2]; rat adipocytes, doses of 500 μM or more) was “significantly higher effect”. The “phosphorylation of IR-β in adipose tissue” value (IR-β; STZ-induced diabetic C57BL/6 mice) was “increased”, the “phosphorylation of IR-β in adipose tissue” value (IR-β; ob/ob mice) was “increased” and the “amount of Akt/PKB protein” value (Akt/PKB) was “did not change”. For the same molecule, the “phosphorylated Akt/PKB” value (Akt/PKB; vs untreated control) was “significantly increased”.

Reference: US7192981B2, “3,4-dihydroxyhydrocinnamic acid derivative” (Bionutrigen Co., Ltd., priority 2005, dated 2007)
